Source: patent publication US9925130B2, “Composition with zinc amino acid/trimethylglycine halide precursors” (Colgate-Palmolive Company, priority 2012, dated 2018)

Columns and labels:
S. aureus = assay: Zone of inhibition test on TSA plates; format: cell-based
Method: (§1) A zone of inhibition test is conducted on several materials: zinc oxide and amino acid hydrohalide alone and a mixture formed from zinc oxide and amino acid hydrohalide. The method involves making a lawn of freshly prepared bacterial culture on TSA (trypticase soy agar) plates. Sterile filter paper discs are seeded with 20 μl of test sample (supernatant or mixture). Sample-coated filter paper discs are air dried and applied onto the bacterial lawn on TSA plates. Plates are incubated for 20 hours at 37° C.

C. minutissimum = assay: Zone of inhibition test on TSA plates; format: cell-based; details: Table 3, sample type not given
Method: as §1
Similar antibacterial efficacy is seen when tetrabasic zinc chloride is used in place of zinc oxide as the source of zinc ions.

C. xerosis = assay: Zone of inhibition test on TSA plates; format: cell-based; details: 20 h 37° C.
Method: as §1

S. epider. = assay: Zone of inhibition test on TSA plates; format: cell-based; details: 20 h 37° C.
Method: as §1

[1] = Hydrolysis reaction: pH and turbidity of diluted ZLC solutions before and after aging; format: physicochemical; details: for pH after aging / turbidity after aging (NTU): 37° C. over 5 hours
Method: A 185 mg/ml solution of ZLC is prepared and diluted several-fold and aged in a 37° C. oven over 5 hours for turbidity studies. […] Turbidity of the solutions is measured using a nephelometer, results being given in nephelometric turbidity units (NTU).
The precipitates formed in the 8×, 16× and 32× diluted solutions are collected by centrifugation and identified as crystalline ZnO by PXRD. From the supernatant, a single crystal is grown and shown by X-ray diffraction to be Lysine Monohydrochloride Dihydrate (Lysine.HCl.2H2O).

[2] = biological target: Bovine Serum Albumin (BSA) (Bos taurus, UniProt P02769); assay: Flocculation of ZLC in the presence of protein (BSA): turbidity and pH; format: physicochemical; details: for observation / pH / Turbidity (NTU): ZLC about 15 mg/ml, 5 hours 37° C.
Bovine Serum Albumin (BSA), sequence (P02769 25-607): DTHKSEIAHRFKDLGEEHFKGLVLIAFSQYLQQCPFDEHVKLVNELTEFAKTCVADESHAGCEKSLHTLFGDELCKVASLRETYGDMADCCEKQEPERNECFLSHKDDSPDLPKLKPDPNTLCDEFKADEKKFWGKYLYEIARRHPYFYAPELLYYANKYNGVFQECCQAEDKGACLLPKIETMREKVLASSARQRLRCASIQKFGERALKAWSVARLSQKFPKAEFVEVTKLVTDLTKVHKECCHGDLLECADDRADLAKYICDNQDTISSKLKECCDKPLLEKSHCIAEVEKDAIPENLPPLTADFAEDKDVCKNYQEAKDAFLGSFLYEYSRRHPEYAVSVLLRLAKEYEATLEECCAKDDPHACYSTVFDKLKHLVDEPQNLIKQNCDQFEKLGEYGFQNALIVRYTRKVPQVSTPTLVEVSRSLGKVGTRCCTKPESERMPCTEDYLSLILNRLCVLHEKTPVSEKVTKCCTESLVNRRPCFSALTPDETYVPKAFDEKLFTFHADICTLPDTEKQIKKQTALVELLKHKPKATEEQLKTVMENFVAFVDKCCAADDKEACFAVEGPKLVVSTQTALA
Method: Turbidity and pH of solutions are measured 5 hours after the mixtures were placed in a 37° C. oven, and the results are shown in Table 6.

[3] = Solubilization of zinc: free Zn2+ in supernatant by atomic absorption; format: physicochemical; details: dispersed in water, equilibrated overnight
Source text: Ingredients are dispersed in water, equilibrated overnight, and the supernatant analyzed for free Zn^2+ by atomic absorption.

[4] = sample 1: DI water, 0% BSA, pH 6.4
[5] = sample 3: 1% BSA, pH adjusted to 5.1

N=C(N)NCCC[C@H](N)C(=O)O [Arginine 4%, arginine]
Zone of Inhibition (S. aureus; Table 3, sample type not given): 0 mm | Zone of Inhibition (C. minutissimum): 0 mm

NCCCC[C@H](N)C(=O)O [Lysine 4%, lysine]
Zone of Inhibition (S. aureus; Table 3, sample type not given): 0 mm | Zone of Inhibition (C. minutissimum): 0 mm

Cl.NCCCC[C@H](N)C(=O)O [Lysine-HCl 23.2%, lysine hydrochloride]
Zone of Inhibition (C. xerosis; Dry Sample, As is): 0 mm | Zone of Inhibition (C. xerosis; Wet Sample, As is): 0 mm | Zone of Inhibition (S. aureus; Dry Sample, As is, 20 h 37° C.): 0 mm | Zone of Inhibition (S. aureus; Table 3, sample type not given): 0 mm | Zone of Inhibition (S. aureus; Wet Sample, As is, 20 h 37° C.): 0 mm | Zone of Inhibition (S. epider.; Dry Sample, As is): 0 mm | Zone of Inhibition (S. epider.; Wet Sample, As is): 0 mm | Zone of Inhibition (C. minutissimum): 0 mm

[Cl-].[Cl-].[OH-].[OH-].[OH-].[OH-].[OH-].[OH-].[OH-].[OH-].[Zn+2].[Zn+2].[Zn+2].[Zn+2].[Zn+2] [TBZC (4%), Tetrabasic zinc chloride]
Zone of Inhibition (S. aureus; Table 3, Mixture): 6 mm | Zone of Inhibition (S. aureus; Table 3, Supernat): 6 mm

NCCCCC(N)C(=O)O.NCCCCC(N)C(=O)O.O.O.[Cl-].[Cl-].[Zn+2] (centres unmarked) [ZLC, [Zn(Lysine)2Cl]^+Cl^−.2H2O]
initial pH ([1]; 5.78 mg/ml): 8 | pH after aging ([1]; 5.78 mg/ml): 8 | turbidity after aging (NTU) ([1]; 5.78 mg/ml): >1000 NTU | initial pH ([1]; 11.56 mg/ml): 7.8 | pH after aging ([1]; 11.56 mg/ml): 7.8 | turbidity after aging (NTU) ([1]; 11.56 mg/ml): >1000 NTU | initial pH ([1]; 23.125 mg/ml): 7.7 | initial turbidity (NTU) ([1]; 23.125 mg/ml): 0.7 NTU | pH after aging ([1]; 23.125 mg/ml): 7.7 | initial pH ([1]; 46.25 mg/ml): 7.4 | initial turbidity (NTU) ([1]; 46.25 mg/ml): 1.5 NTU | pH after aging ([1]; 46.25 mg/ml): 7.4 | turbidity after aging (NTU) ([1]; 46.25 mg/ml): 2.8 NTU | initial pH ([1]; 92.5 mg/ml): 7 | initial turbidity (NTU) ([1]; 92.5 mg/ml): 2.8 NTU | pH after aging ([1]; 92.5 mg/ml): 7 | turbidity after aging (NTU) ([1]; 92.5 mg/ml): 2.6 NTU | initial pH ([1]; 185 mg/ml): 6.8 | initial turbidity (NTU) ([1]; 185 mg/ml): 4.7 NTU | pH after aging ([1]; 185 mg/ml): 6.8 | turbidity after aging (NTU) ([1]; 185 mg/ml): 4.1 NTU | observation as the 185 mg/ml solution is diluted ([1]; diluted several-fold, 37° C.): white precipitate forms | stability of the complex upon dilution ([1]; precipitates of 8×, 16×, 32× dilutions identified as crystalline ZnO by PXRD, Lysine.HCl.2H2O from supernatant): disassociates upon dilution, with consequent precipitation of zinc oxide | flocculation of proteins ([2]; proteins such as BSA): ability to flocculate proteins | observation [2, 4]: slightly cloudy | pH [2, 4]: 8 | Turbidity (NTU) ([2]; sample 2: 1% BSA, pH 7.2): >1000 NTU | observation ([2]; sample 2: 1% BSA, pH 7.2): precipitate | pH ([2]; sample 2: 1% BSA, pH 7.2): 8.2 | Turbidity (NTU) [2, 5]: >1000 NTU | observation [2, 5]: precipitate | pH [2, 5]: 8

[O]=[Zn] [ZnO(4%), zinc oxide]
Free Zn [3]: 11 ppm | Zone of Inhibition (C. xerosis; Dry Sample, Mixture): 0 mm | Zone of Inhibition (C. xerosis; Dry Sample, Supernatant): 0 mm | Zone of Inhibition (C. xerosis; Wet Sample, Mixture): 0 mm | Zone of Inhibition (C. xerosis; Wet Sample, Supernatant): 0 mm | Zone of Inhibition (S. aureus; Dry Sample, Mixture, 20 h 37° C.): 7 mm | Zone of Inhibition (S. aureus; Dry Sample, Supernatant, 20 h 37° C.): 0 mm | Zone of Inhibition (S. aureus; Wet Sample, Mixture, 20 h 37° C.): 7 mm | Zone of Inhibition (S. aureus; Wet Sample, Supernatant, 20 h 37° C.): 0 mm | Zone of Inhibition (S. epider.; Dry Sample, Mixture): 10 mm | Zone of Inhibition (S. epider.; Dry Sample, Supernatant): 0 mm | Zone of Inhibition (S. epider.; Wet Sample, Mixture): 12 mm | Zone of Inhibition (S. epider.; Wet Sample, Supernatant): 0 mm
